Data published in patent publication US20250109127A1, “METHODS OF USE OF PHENOXYPROPYLAMINE COMPOUNDS TO TREAT DEPRESSION” (Minerva Neurosciences, Inc., priority 2013, published 2025).
Several values for one entry are separate records, joined by “and”; a condition that tells them apart may be missing. Equal values may be shown once.

System: HVA release in the rat prefrontal cortex
Test: Microdialysis: HVA release in prefrontal cortex after I.P. administration
Format: in vivo
Conditions: Citalopram 10 mg/kg I.P.
Method: The aim of the study was to evaluate, using microdialysis, the effects of an intraperitoneal (I.P.) administration in rats of three different doses of SON-117 on dopamine and its metabolites, serotonin and its metabolite (5-HIAA), and norepinephrine levels in prefrontal cortex.
Thirty-two adult male Wistar rats were used for the whole study (4 groups of eight animals planned for the study, Table 1).
Surgery was performed on rats weighing about 300 g at the beginning of the experiments. Rats were anaesthetized with Ketamine (50 mg/kg) & Xylazine (15 mg/kg) by intramuscular administration. The animals were placed in a stereotaxic apparatus in the flat-skull position at a constant setting of −3.3 mm between ear bars and the incisor bar. The animals were treated with a local anesthesic (xylocaine 1%, Astra Zeneca) and an analgesic (Temgesic, from Schering Plough, 0.05 mg/kg, s.c.). A rostrocaudal midline incision was made with a lancet to expose the dorsal skull surface. The “stereotaxic zero” was defined by the Bregma in accordance with Paxinos and Watson's atlas (1986). A hole was drilled in the skull with a drill and the meninges were pierced with a sterile needle to implant a CMA12 guide cannula which later received the dialysis probe.
Coordinates used for implanting guide cannula in prefrontal cortex from Bregma were anteroposterior 3.7 mm, mediolateral 0.8 mm, and dorsoventral −2 mm (top of the probe was at −5 mm). The guide cannula was fixed to the skull with two stainless steel screws (1.88 mm outside diameter) anchored. An application of dental cement was added. A plastic collar allowed each animal to be tethered to a Swivel assembly of the CMA 120 awake animal system. Following surgery, rats were kept in individual cages and allowed to recover for a minimum of 3-5 days before the experimentation. The rats were handled and put in plastic bowl for 10 min at least every day to habituate the animals to their new environment for the dialysis. An I.P. administration with saline was also performed every day.
Dialysis probes (CMA12/3 mm, membrane, 20 kD cut-off, Carnegie Medicine, Stockholm, Sweden), were carefully washed before inserting into the guide cannula. The wash was performed with the artificial cerebrospinal fluid (aCSF) medium (NaCl 147 mM, KCl 2.7 mM, CaCl2 1.2 mM, MgCl2 0.85 mM) at room temperature. The dialysis system was then equilibrated at 20° C. at a perfusion rate of 1 μl/min with a Carnegie pump (CMA100). All catheters (FEP tubing, internal volume of 1.2 μl/10 cm, and tubing adaptors) used for microdialysis were treated in the same conditions.
The probes duly prepared were inserted into the guide cannula and the CMA120 Swivel assembly secured to the animal using a plastic collar. Flow through the dialysis probe with aCSF was maintained at a rate of 1 μl/min during the whole experimentation. The first four fractions (corresponding to 2 hours) were discarded to avoid the effects of parenchymal disturbance and to ensure that an approximate steady-state level was reached. Fractions were then collected over a period of 8.5 h during which time the animals remained quiet. The dialysates were automatically collected with an autosampler (microfraction collector CMA 140, Carnegie Medicin) and stored at −80° C. until analysis. […] Perfusion was then maintained for 7 hours with aCSF. The dialysates (30 μl) were collected into 300 μl vials, transferred into dry ice and then kept frozen (−80° C.) until analysis. Frozen samples were shipped to a partner for analysis. At the end of the microdialysis study, a PBS with colored ink was perfused through the probe in order to visualize the dialyzed area.
Catecholamine assay: Concentrations of dopamine, DOPAC, HVA, 5-HIAA, 5-HT, and norepinephrin were determined for each sample by HPLC coupled with electrochemical detection.

CN(C)CCCC1(c2ccc(F)cc2)OCc2cc(C#N)ccc21 (stereo not shown) [Citalopram, citalopram, reference compound]
HVA in dialysate, MEAN (T0-T30 min): 102.65 % of respective basal
HVA in dialysate, MEAN (T30-T1 h): 105.17 % of respective basal
HVA in dialysate, individual animals (T30-T1 h): 110.26 % of respective basal and 73.39 % of respective basal and 105.80 % of respective basal and 135.08 % of respective basal and 125.22 % of respective basal and 95.29 % of respective basal and 76.23 % of respective basal and 120.12 % of respective basal
HVA in dialysate, MEAN (T1 h 30-T2 h): 106.38 % of respective basal
HVA in dialysate, individual animals (T1 h 30-T2 h): 104.10 % of respective basal and 113.65 % of respective basal and 118.49 % of respective basal and 112.13 % of respective basal and 90.95 % of respective basal and 85.54 % of respective basal and 119.96 % of respective basal
HVA in dialysate, MEAN (T1 h-T1 h 30): 112.92 % of respective basal
HVA in dialysate, individual animals (T1 h-T1 h 30): 120.80 % of respective basal and 108.77 % of respective basal and 119.99 % of respective basal and 133.87 % of respective basal and 130.19 % of respective basal and 94.21 % of respective basal and 78.63 % of respective basal and 116.88 % of respective basal
HVA in dialysate, MEAN (T2 h 30-T3 h): 99.23 % of respective basal
HVA in dialysate, individual animals (T2 h 30-T3 h): 86.24 % of respective basal and 96.34 % of respective basal and 105.81 % of respective basal and 109.56 % of respective basal and 114.62 % of respective basal and 86.75 % of respective basal and 85.57 % of respective basal and 108.98 % of respective basal
HVA in dialysate, MEAN (T2 h-T2 h 30): 104.43 % of respective basal
HVA in dialysate, individual animals (T2 h-T2 h 30): 119.22 % of respective basal and 102.87 % of respective basal and 120.09 % of respective basal and 114.29 % of respective basal and 113.51 % of respective basal and 80.94 % of respective basal and 78.69 % of respective basal
HVA in dialysate, MEAN (T3 h 30-T4 h): 106.01 % of respective basal
HVA in dialysate, individual animals (T3 h 30-T4 h): 116.4 % of respective basal and 101.70 % of respective basal and 115.15 % of respective basal and 111.71 % of respective basal and 116.15 % of respective basal and 91.42 % of respective basal and 83.19 % of respective basal and 112.34 % of respective basal
HVA in dialysate, MEAN (T3 h-T3 h 30): 99.27 % of respective basal
HVA in dialysate, individual animals (T3 h-T3 h 30): 120.94 % of respective basal and 53.98 % of respective basal and 122.37 % of respective basal and 100.07 % of respective basal and 116.40 % of respective basal and 87.92 % of respective basal and 83.63 % of respective basal and 108.86 % of respective basal
HVA in dialysate, MEAN (T4 h 30-T5 h): 104.36 % of respective basal
HVA in dialysate, individual animals (T4 h 30-T5 h): 122.34 % of respective basal and 105.68 % of respective basal and 105.06 % of respective basal and 88.58 % of respective basal and 115.04 % of respective basal and 93.59 % of respective basal and 99.55 % of respective basal and 105.03 % of respective basal
HVA in dialysate, MEAN (T4 h-T4 h 30): 102.95 % of respective basal
HVA in dialysate, individual animals (T4 h-T4 h 30): 114.29 % of respective basal and 100.59 % of respective basal and 112.89 % of respective basal and 101.71 % of respective basal and 116.86 % of respective basal and 75.84 % of respective basal and 89.63 % of respective basal and 111.78 % of respective basal
HVA in dialysate, MEAN (T5 h 30-T6 h): 101.24 % of respective basal
HVA in dialysate, individual animals (T5 h 30-T6 h): 117.67 % of respective basal and 97.79 % of respective basal and 98.75 % of respective basal and 98.06 % of respective basal and 103.48 % of respective basal and 81.28 % of respective basal
HVA in dialysate, MEAN (T5 h-T5 h 30): 90.91 % of respective basal
HVA in dialysate, individual animals (T5 h-T5 h 30): 56.25 % of respective basal and 103.6 % of respective basal and 88.87 % of respective basal and 96.67 % of respective basal and 94.02 % of respective basal and 92.05 % of respective basal and 104.93 % of respective basal
HVA in dialysate, MEAN (T6 h 30-T7 h): 96.98 % of respective basal
HVA in dialysate, individual animals (T6 h 30-T7 h): 91.33 % of respective basal and 101.80 % of respective basal and 95.80 % of respective basal and 96.50 % of respective basal and 91.69 % of respective basal and 93.72 % of respective basal and 98.54 % of respective basal
HVA in dialysate, MEAN (T6 h-T6 h 30): 98.82 % of respective basal
HVA in dialysate, individual animals (T6 h-T6 h 30): 123.42 % of respective basal and 100.15 % of respective basal and 101.33 % of respective basal and 91.37 % of respective basal and 91.61 % of respective basal and 99.80 % of respective basal and 86.50 % of respective basal and 96.35 % of respective basal
HVA in dialysate, MEAN (T-30 min-T0 (pre-dose)): 100.15 % of respective basal
HVA in dialysate, MEAN (T-1 h 30-T-1 h (pre-dose)): 103.32 % of respective basal
HVA in dialysate, individual animals (T-1 h 30-T-1 h (pre-dose)): 98.60 % of respective basal and 95.37 % of respective basal
HVA in dialysate, MEAN (T-1 h-T-30 min (pre-dose)): 97.36 % of respective basal
